Consider 4 compounds from US7105548B2, “Heteroaryl substituted triazole modulators of metabotropic glutamate receptor-5” (Merck & Co., Inc., priority 2001, dated 2006).

Counter-ions that a name gives are not always drawn.

The melting point is the temperature, or range, at which the solid turns liquid. Consider `Clc1cccc(-n2cnc(-c3ccccn3)n2)c1` (as salt: hydrochloride) [Example 1, 2-[1-(3-chlorophenyl)-1H-1,2,4-triazol-3-yl]pyridine], for which the melting point lay within 221 to 223 °C. With `N#Cc1cccc(-c2ncn(-c3ccccn3)n2)c1` (as salt: hydrochloride) [Example 3, 3-(1-pyridin-2-yl-1H-1,2,4-triazol-3-yl)benzonitrile], the melting point was in the range of 185 to 188 °C. To `Clc1cccc(-c2ncn(-c3ccccn3)n2)c1` (as salt: hydrochloride) [Example 4, 2-[3-(3-chlorophenyl)-1H-1,2,4-triazol-1-yl]pyridine] belongs 125 to 128 °C; to `N#Cc1cccc(-n2cnc(-c3ccccn3)n2)c1` [Example 2, 3-(3-pyridin-2-yl-1H-1,2,4-triazol-1-yl)benzonitrile], 194 to 195 °C.
